From publication PMC7294993 (Science signaling, 2020) come the findings set out here.

By EC50 is commonly meant the midpoint of the concentration-response curve. Lower therefore signals a more potent agent.

For one assay, the target named is MRCKA (CDC42BPA) (Homo sapiens, UniProt Q5VT25). Kind of assay: in vitro radioisotope […] kinase assay, 10-dose. The class given is biochemical.
For another assay, the target named is MRCKB (CDC42BPB) (Homo sapiens, UniProt Q9Y5S2). In words: in vitro radioisotope […] kinase assay, 10-dose. The class given is biochemical.
Sequence of MRCKB (CDC42BPB) (Q9Y5S2 whole entry): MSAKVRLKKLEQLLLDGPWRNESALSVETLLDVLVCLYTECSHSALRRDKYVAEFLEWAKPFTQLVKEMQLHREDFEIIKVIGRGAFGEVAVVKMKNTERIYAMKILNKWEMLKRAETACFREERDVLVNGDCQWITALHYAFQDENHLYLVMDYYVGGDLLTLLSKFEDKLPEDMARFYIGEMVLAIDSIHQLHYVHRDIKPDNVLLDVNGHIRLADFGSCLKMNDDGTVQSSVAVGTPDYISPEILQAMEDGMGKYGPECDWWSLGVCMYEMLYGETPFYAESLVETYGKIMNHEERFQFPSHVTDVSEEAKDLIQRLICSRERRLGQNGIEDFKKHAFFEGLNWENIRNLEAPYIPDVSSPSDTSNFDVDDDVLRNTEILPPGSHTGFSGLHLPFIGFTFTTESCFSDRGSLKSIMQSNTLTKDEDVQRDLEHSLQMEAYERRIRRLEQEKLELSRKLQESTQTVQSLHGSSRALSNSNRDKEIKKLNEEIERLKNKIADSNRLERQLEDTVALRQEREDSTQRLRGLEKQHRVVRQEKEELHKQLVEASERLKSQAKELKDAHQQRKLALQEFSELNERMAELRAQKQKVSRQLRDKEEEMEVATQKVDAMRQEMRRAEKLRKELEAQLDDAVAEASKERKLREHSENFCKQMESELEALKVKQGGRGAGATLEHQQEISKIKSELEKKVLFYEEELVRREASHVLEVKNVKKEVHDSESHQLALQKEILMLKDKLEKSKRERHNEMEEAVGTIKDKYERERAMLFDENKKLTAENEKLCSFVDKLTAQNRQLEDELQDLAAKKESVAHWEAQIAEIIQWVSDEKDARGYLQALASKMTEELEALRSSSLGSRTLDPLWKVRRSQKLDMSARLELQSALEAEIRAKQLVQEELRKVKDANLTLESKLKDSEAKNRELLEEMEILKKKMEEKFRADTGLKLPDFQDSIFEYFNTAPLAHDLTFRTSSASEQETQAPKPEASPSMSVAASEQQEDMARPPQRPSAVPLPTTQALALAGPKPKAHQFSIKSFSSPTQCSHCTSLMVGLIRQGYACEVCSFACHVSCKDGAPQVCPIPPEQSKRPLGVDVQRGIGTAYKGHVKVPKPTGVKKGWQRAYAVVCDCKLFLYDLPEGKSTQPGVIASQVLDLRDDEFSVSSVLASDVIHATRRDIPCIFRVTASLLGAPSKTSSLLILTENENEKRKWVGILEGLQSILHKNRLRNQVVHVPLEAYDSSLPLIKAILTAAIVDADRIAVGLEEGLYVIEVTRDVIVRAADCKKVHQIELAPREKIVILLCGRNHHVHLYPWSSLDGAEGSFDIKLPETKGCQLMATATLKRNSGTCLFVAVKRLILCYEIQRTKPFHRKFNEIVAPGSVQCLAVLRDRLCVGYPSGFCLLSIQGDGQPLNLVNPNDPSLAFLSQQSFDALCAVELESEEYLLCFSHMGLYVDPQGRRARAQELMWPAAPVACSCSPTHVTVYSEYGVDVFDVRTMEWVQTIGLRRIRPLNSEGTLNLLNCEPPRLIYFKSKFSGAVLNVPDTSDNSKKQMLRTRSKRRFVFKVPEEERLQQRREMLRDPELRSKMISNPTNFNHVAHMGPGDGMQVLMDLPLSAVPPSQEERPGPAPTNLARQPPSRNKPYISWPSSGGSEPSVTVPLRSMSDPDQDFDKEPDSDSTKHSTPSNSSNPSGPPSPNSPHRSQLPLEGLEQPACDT

Sequence of MRCKA (CDC42BPA) (Q5VT25 whole entry): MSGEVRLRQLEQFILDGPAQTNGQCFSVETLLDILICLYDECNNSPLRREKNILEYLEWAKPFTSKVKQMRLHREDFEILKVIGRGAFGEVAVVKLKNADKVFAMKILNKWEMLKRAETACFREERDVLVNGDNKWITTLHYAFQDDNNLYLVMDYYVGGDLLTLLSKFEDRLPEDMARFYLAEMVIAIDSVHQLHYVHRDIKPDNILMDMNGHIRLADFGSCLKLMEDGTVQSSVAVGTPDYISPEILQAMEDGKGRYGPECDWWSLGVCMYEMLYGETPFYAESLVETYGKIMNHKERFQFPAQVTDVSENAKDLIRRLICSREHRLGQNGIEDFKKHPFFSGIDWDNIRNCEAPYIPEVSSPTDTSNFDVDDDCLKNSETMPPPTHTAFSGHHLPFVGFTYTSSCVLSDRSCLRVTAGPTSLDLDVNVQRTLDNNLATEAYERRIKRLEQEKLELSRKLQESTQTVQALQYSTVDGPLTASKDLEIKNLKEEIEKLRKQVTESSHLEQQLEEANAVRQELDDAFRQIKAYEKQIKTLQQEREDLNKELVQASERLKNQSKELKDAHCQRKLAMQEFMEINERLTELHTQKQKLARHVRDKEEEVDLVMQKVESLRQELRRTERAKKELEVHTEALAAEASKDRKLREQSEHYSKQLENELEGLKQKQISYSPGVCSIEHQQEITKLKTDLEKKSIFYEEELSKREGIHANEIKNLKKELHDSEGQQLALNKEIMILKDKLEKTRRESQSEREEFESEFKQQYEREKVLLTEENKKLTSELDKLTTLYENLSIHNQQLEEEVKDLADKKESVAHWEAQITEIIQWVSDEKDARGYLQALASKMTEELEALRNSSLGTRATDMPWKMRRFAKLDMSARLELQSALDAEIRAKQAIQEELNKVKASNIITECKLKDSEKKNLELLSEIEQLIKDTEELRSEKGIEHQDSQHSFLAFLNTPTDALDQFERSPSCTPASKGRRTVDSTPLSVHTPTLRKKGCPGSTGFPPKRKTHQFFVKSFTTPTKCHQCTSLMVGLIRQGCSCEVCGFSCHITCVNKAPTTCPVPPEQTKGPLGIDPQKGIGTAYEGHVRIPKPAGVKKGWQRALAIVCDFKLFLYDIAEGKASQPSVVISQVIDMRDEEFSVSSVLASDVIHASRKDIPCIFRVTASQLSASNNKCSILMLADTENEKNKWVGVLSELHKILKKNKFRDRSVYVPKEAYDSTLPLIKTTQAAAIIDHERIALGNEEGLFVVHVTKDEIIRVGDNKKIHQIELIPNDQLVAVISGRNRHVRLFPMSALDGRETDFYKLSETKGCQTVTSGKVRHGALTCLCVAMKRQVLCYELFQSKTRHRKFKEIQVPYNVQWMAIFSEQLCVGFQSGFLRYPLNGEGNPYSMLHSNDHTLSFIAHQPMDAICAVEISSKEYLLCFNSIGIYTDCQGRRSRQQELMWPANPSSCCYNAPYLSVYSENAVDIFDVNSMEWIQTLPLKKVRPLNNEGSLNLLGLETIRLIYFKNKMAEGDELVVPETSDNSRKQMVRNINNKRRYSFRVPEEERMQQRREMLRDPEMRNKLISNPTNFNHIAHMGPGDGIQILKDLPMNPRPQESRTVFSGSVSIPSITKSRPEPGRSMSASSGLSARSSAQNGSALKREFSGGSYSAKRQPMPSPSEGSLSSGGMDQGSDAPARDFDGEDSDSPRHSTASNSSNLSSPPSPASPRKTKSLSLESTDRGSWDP

On to BDP9066, for which the EC50 worked out at 65 nM on MRCKA (CDC42BPA) and 72 nM on MRCKB (CDC42BPB).
